From patent US9447081B2, “Substituted pyrimidines as pharmaceuticals and insecticides” (SHENYANG SINOCHEM AGROCHEMICALS R&D CO., LTD., priority 2012, dated 2016)

Legend:
[1] = test system: diamond back moth; experiment: Insecticidal activity against diamond back moth (airbrush spray); type: in vivo; conditions: mortality after 72 h; for pest or weed control at 600 µg/mL: read-out: control of the second instar larvae of diamond back moth
Description: (§1) Compounds were dissolved in mixed solvent (acetone:methanol=1:1), and diluted to required concentration with water containing 0.1% of tween 80.
(§2) Diamond back moth, armyworm, Green Peach Aphid and carmine spider mite were used as targets and the method of spraying by airbrush was used for determination of insecticidal biassays.
(§3) The method of spraying by airbrush: The cabbage leaves were made into plates of 2 cm diameter by use of punch. A test solution (0.5 ml) was sprayed by airbrush at the pressure of 0.7 kg/cm^2 to both sides of every plate. 10 Second instar larvae were put into the petri-dishes after the leaf disc air-dried and 3 replicates were set for each treatment. Then the insects were maintained in observation room (25° C., 60˜70% R.H.). Scores were conducted and mortalities were calculated after 72 h.

[2] = test system: carmine spider mite; experiment: Acaricidal activity against carmine spider mite (airbrush spray); type: in vivo; conditions: Tetranychus cinnabarinus; 100 mg/L, adults, mortality after 72 hrs
Description: as §1, §2
Method: Broadbean shoots with two true leaves in pot were taken, the healthy adults of carmine spider mite were inoculated to the leaves. The adults were counted and then sprayed with airbrush at the pressure of 0.7 kg/cm^2 and at dose of 0.5 ml. 3 replicates were set for each treatment. And then they were maintained in standard observation room. Scores were conducted and mortalities were calculated after 72 hrs.

[3] = test system: Green peach aphids (Myzus Persicae Sulzer); experiment: Activity against green peach aphid (airbrush foliar spray); type: in vivo; conditions: death rate after 48 h; for pest or weed control at 600 µg/mL / pest or weed control at 10 µg/mL / pest or weed control at 100 µg/mL: Myzus persicae, foliar, 48 h; for pest or weed control at 600 µg/mL / pest or weed control at 100 µg/mL: read-out: Insecticidal activity against peach aphid (control); for pest or weed control at 10 µg/mL / Insecticidal activity against peach aphid: 10 mg/L; for pest or weed control at 10 µg/mL: read-out: Insecticidal activity against peach aphid
Description: as §1, §2
Method: Filter papers were put in culture dishes (Diameter=6 cm), and water was dripped on filter papers for preserving moisture. Green peach aphids (Myzus Persicae Sulzer) were maintained on cabbage. Leaves (Diameter=3 cm) of approximately 15-30 aphids were put in the culture dishes. Bioactivity tests were used the method of Airbrush Foliar Spray, pressure=10 psi (0.7 kg/cm2), spray volume=0.5 mL. The studies were conducted at three constant temperatures 25±1 C. in incubator cabinets with 60±5% RH. Survey the survival aphids after 48 h and calculate the death rates.

[4] = test system: armyworm; experiment: Insecticidal activity against armyworm (airbrush spray); type: in vivo; conditions: second instar larvae, mortality after 72 h
Description: as §1, §2
as §3, with “corn” for “cabbage”

[5] = test system: corn rust; experiment: Protectant activity in vivo (whole plant), corn rust; conditions: for pest or weed control at 400 µg/mL / pest or weed control at 100 µg/mL / pest or weed control at 25 µg/mL: Zea mays, 168 h, read-out: protectant activity against corn rust
Description: (§4) The method is as followed: The whole plant is used in this test. The compound is dissolved in a proper solvent to get mother solution. The proper solvent is selected from acetone, methanol, DMF and so on according to their dissolving capability to the sample. […] The testing solution is sprayed to the host plant by a special plant sprayer. The plant is inoculated with fungus after 24 hours. According to the infecting characteristic of fungus, the plant is stored in a humidity chamber and then transferred into greenhouse after infection is finished. And the other plants are placed in greenhouse directly. The activity of compound is obtained by eyeballing after 7 days in common.

[6] = test system: wheat powdery mildew; experiment: Protectant activity in vivo (whole plant), wheat powdery mildew
Description: as §4

[7] = test system: cucumber gray mold; experiment: Fungicidal activity in vitro (96-well, High Through Put), cucumber gray mold; type: cell-based; conditions: 25 mg/L, 24 hours; for inhibition at 25 µg/mL: read-out: inhibition rate against cucumber gray mold
[8] = test system: cucumber downy mildew; experiment: Protectant activity in vivo (whole plant), cucumber downy mildew
Description: as §4

[9] = test system: rice blast; experiment: microbe, parasite or virus in culture; type: cell-based
[10] = test system: human bladder cancer cell line T24; experiment: In vitro cell inhibition assay against human cancer cell T24; type: cell-based; conditions: 10 μM, incubation for one week, crystal violet
Description: The tested compounds are dissolved in DMSO and diluted to designed concentration with culture medium.
The of cell culture technology in vitro was selected to evaluate growth inhibition rate against human bladder cancer cell line T24. 1000 to 3000 cells were inoculated into 24-well plate, followed by addition of cell culture medium (1 mL) known for technicans in this field (culture medium is RMPI-1640), after cells were cultured in incubator (CO2 5%, 37° C.) for 24 hours, then the tested compounds with designed concentration were added to each well. […] After incubation for one week, the culture medium was removed, the plate wells were washed with cold PBS once, fixed with 1% formalin at room temperature for 10 minutes, and washed with cold PBS one more time, followed by stain with 0.1% crystal violet for 30 minutes. Crystal violet can be recycled. The stained cells were washed with deionized water gently, dried in the air and reserved, were then incubated for 4 h. The inhibition rate was calculated according to the left cells of each treatment and contrast.
The inhibition rate=the left cells of each treatment/the left cells of contrast×100%

[11] = Triticum aestivum, 168 h, 400 mg/L, read-out: protectant activity against wheat powdery mildew
[12] = Cucumis sativus, 168 h, 400 mg/L, read-out: protectant activity against cucumber downy mildew
[13] = Pyricularia oryzae, 24 h, read-out: inhibition rate against rice blast
[14] = Cucumis sativus, 168 h, 100 mg/L, read-out: protectant activity against cucumber downy mildew
[15] = Triticum aestivum, 168 h, 25 mg/L, read-out: protectant activity against wheat powdery mildew
[16] = Triticum aestivum, 168 h, 100 mg/L, read-out: protectant activity against wheat powdery mildew

SMILES | pest or weed control at 600 µg/mL ([1]; 600 mg/L) | pest or weed control at 100 µg/mL [2] | pest or weed control at 600 µg/mL ([3]; 600 mg/L) | pest or weed control at 600 µg/mL ([4]; 600 mg/L) | pest or weed control at 400 µg/mL ([5]; 400 mg/L) | pest or weed control at 400 µg/mL [6, 11] | inhibition at 25 µg/mL [7] | pest or weed control at 400 µg/mL [8, 12] | inhibition at 25 µg/mL [9, 13] | pest or weed control at 100 µg/mL ([5]; 100 mg/L) | pest or weed control at 100 µg/mL ([3]; 100 mg/L) | also measured
c1ccc2c(NCCc3ccc4c(c3)OCO4)ncnc2c1 [ACTA-1] | 40% | 0% | 0% | 40% | 0% | 0% | 50% |  |  |  |  | 
COc1cc(CNc2ncnc(C)c2Cl)ccc1O [CK3] | 0% | 0% | 0% | 0% | 0% | 0% | 0% | 0% |  |  |  | 
Cc1ncnc(NCCc2ccc(O)cc2)c1Cl [CK4] | 0% | 0% | 0% | 0% | 0% | 0% | 0% | 0% | 0% |  |  | 
COc1ccc(CCNc2ncnc(C)c2Cl)cc1OC [CK8] | 0% |  | 0% | 0% | 100% | 100% | 0% | 98% | 50% | 0% |  | pest or weed control at 25 µg/mL ([8]; Cucumis sativus, 168 h, 25 mg/L, read-out: protectant activity against cucumber downy mildew): 0%; pest or weed control at 50 µg/mL ([8]; Cucumis sativus, 168 h, 50 mg/L, read-out: protectant activity against cucumber downy mildew): 20%; pest or weed control at 100 µg/mL [8, 14]: 45%; pest or weed control at 6.25 µg/mL ([6]; Triticum aestivum, 168 h, 6.25 mg/L, read-out: protectant activity against wheat powdery mildew): 0%; pest or weed control at 25 µg/mL [6, 15]: 10%; pest or weed control at 100 µg/mL [6, 16]: 80%
Cc1c(Cl)c(NCCc2ccc3c(c2)OCO3)nc[n+]1CC(=O)c1ccc(Cl)cc1 [CK10] | 0% | 0% | 0% | 0% | 0% | 0% | 0% | 0% | 0% |  |  | 
ClCc1ncnc(NCCc2ccc3c(c2)OCO3)c1Cl [CK11] | 0% | 25% | 88% | 0% | 85% | 0% | 50% | 30% |  | 35% | 0% | pest or weed control at 100 µg/mL [8, 14]: 0%; pest or weed control at 10 µg/mL [3]: 0%; pest or weed control at 25 µg/mL ([5]; 25 mg/L): 0%
c1ccc2c(NCc3ccc4c(c3)OCO4)ncnc2c1 [CK13] | 0% | 0% | 50% | 0% | 40% | 0% | 0% | 0% | 0% | 0% | 0% | pest or weed control at 10 µg/mL [3]: 0%
Cc1ncnc(NCCc2ccc3c(c2)OCO3)c1Cl [Compound 5] |  |  |  |  |  |  |  |  |  |  |  | protectant activity against cucumber downy mildew ([8]; 12.5 mg/L): 100%; protectant activity against cucumber downy mildew ([8]; 25 mg/L): 100%; protectant activity against cucumber downy mildew ([8]; 50 mg/L): 100%; protectant activity against cucumber downy mildew ([8]; 100 mg/L): 100%; protectant activity against cucumber downy mildew ([8]; 400 mg/L): 100%; inhibition rate against rice blast ([9]; in vitro, 25 mg/L, 24 hours): 80%; Insecticidal activity against peach aphid [3]: 0%; Insecticidal activity against peach aphid (control) ([3]; 100 mg/L): 52%; Insecticidal activity against peach aphid (control) ([3]; 600 mg/L): 100%; inhibition rate against bladder cancer cell line T24 [10]: 100%; protectant activity against corn rust ([5]; 6.25 mg/L): 100%; protectant activity against corn rust ([5]; 25 mg/L): 100%; protectant activity against corn rust ([5]; 100 mg/L): 100%; protectant activity against corn rust ([5]; 400 mg/L): 100%; protectant activity against wheat powdery mildew ([6]; 6.25 mg/L): 75%; protectant activity against wheat powdery mildew ([6]; 25 mg/L): 85%; protectant activity against wheat powdery mildew ([6]; 100 mg/L): 100%; protectant activity against wheat powdery mildew ([6]; 400 mg/L): 100%
CCc1ncnc(NCCc2ccc3c(c2)OCO3)c1Cl [Compound 6] |  |  |  |  |  |  |  |  |  |  |  | control of the second instar larvae of diamond back moth ([1]; 100 mg/L): 90%; control of the second instar larvae of diamond back moth ([1]; 600 mg/L): 100%; Insecticidal activity against peach aphid [3]: 100%; Insecticidal activity against peach aphid (control) ([3]; 100 mg/L): 100%; Insecticidal activity against peach aphid (control) ([3]; 600 mg/L): 100%; control of the armyworm ([4]; 100 mg/L): 90%; control of the armyworm ([4]; 600 mg/L): 90%; inhibition rate against bladder cancer cell line T24 [10]: 100%; protectant activity against corn rust ([5]; 6.25 mg/L): 90%; protectant activity against corn rust ([5]; 25 mg/L): 100%; protectant activity against corn rust ([5]; 100 mg/L): 100%; protectant activity against corn rust ([5]; 400 mg/L): 100%; protectant activity against wheat powdery mildew ([6]; 6.25 mg/L): 85%; protectant activity against wheat powdery mildew ([6]; 25 mg/L): 90%; protectant activity against wheat powdery mildew ([6]; 100 mg/L): 95%; protectant activity against wheat powdery mildew ([6]; 400 mg/L): 100%; inhibition rate against cucumber gray mold [7]: 80%
Cc1ncnc(NC(C)c2ccc3c(c2)OC(F)(F)O3)c1Cl (stereo not shown) [PC-1] | 0% | 51% | 52% | 0% | 70% | 100% | 50% |  |  | 20% | 0% | inhibition at 8.3 µg/mL [9, 13]: 0%; pest or weed control at 25 µg/mL ([5]; 25 mg/L): 0%; pest or weed control at 25 µg/mL [6, 15]: 0%; pest or weed control at 100 µg/mL [6, 16]: 80%
